Reference: ChEMBL document CHEMBL5331130, “Analysis of Structure-Activity Relationships of Novel Inhibitors of the Macrophage Infectivity Potentiator (Mip) Proteins of Neisseria meningitidis, Neisseria gonorrhoeae, and Burkholderia pseudomallei” (J Med Chem, 2023)
Activity calls are given as the source filed them. The calls are words filed in the database; no cut-off is given here.

What was measured:
[1] = test system: Burkholderia pseudomallei; experiment: Antimicrobial activity against Burkholderia pseudomallei K96243 infected in mouse RAW264.7 cells assessed as reduction in bacteria-induced cytotoxicity at 50 uM after 24 hrs by lactate dehydrogenase release assay relative to control; type: functional; design: scale not given: the % may be the effect or the level left
[2] = test system: Burkholderia pseudomallei; experiment: Inhibition of Burkholderia pseudomallei Mip PPIase activity assessed as remaining activity using Suc-ALPF-pNA substrate measured at 400 nM by protease coupled assay relative to control
[3] = test system: Neisseria meningitidis; experiment: Inhibition of Neisseria meningitidis Mip PPIase activity assessed as remaining activity using Suc-ALPF-pNA substrate measured at 400 nM by protease coupled assay relative to control
[4] = test system: Neisseria meningitidis; experiment: Antimicrobial activity against Neisseria meningitidis infected in mouse RAW264.7 cells assessed as reduction in bacteria-induced cytotoxicity at 50 uM after 24 hrs by lactate dehydrogenase release assay relative to control; type: functional; design: scale not given: the % may be the effect or the level left
[5] = test system: Neisseria meningitidis; experiment: Inhibition of Neisseria meningitidis Mip NEIS0004 assessed as remaining activity using Suc-ALPF-pNA substrate measured at 400 nM by protease coupled assay relative to control
[6] = Binding affinity to Burkholderia pseudomallei Mip measured after 1 hr by fluorescence polarization assay
[7] = test system: Neisseria gonorrhoeae; experiment: Antimicrobial activity against Neisseria gonorrhoeae infected in mouse RAW264.7 cells assessed as reduction in bacteria-induced cytotoxicity at 50 uM after 24 hrs by lactate dehydrogenase release assay relative to control; type: functional; design: scale not given: the % may be the effect or the level left

SMILES	Activity [1]	Activity [2]	Activity [3]	Activity [4]	Activity [5]	Ki ([6]; read-out: Ki)	Activity [7]	Ki [6]
O=C(NCc1cccnc1)[C@H](CCc1ccccc1)COC(=O)[C@@H]1CCCCN1S(=O)(=O)Cc1ccccc1	97.6%	101%	83.5%	67.7%	70%	3380 nM	53.6%	
C#CCOc1ccc(C[C@H](NC(=O)[C@@H]2CCCCN2S(=O)(=O)Cc2ccc(F)cc2)C(=O)NCc2cccnc2)cc1	55.4%	4.4%	12.3%	45.7%	4.9%	34.3 nM	35.2%	
CC(C)C[C@H](OC(=O)C1CCCCN1S(=O)(=O)Cc1ccccc1)C(=O)NCc1cccnc1 (mixture of isomers)	93.2%	17.4%	22.1%	36.9%	3.4%	15.8 nM		
CC(C)C[C@H](OC(=O)[C@@H]1CCCCN1S(=O)(=O)Cc1ccccc1)C(=O)NCc1cccnc1	87.8%	4.8%	35.6%	13%	3.8%	60.5 nM	19.1%	
O=C(NCCOC(=O)[C@@H]1CCCCN1S(=O)(=O)Cc1ccccc1)c1cccnc1	68.9%	50.3%	52.2%	41.1%	61.9%	3960 nM	27.1%	
CC(C)[C@H](OC(=O)C1CCCCN1S(=O)(=O)Cc1ccccc1)C(=O)NCc1cccnc1 (mixture of isomers)	96.8%	13.9%	25.2%	52.5%	10.9%	1080 nM	65.1%	
O=C(NCc1cccnc1)[C@H](Cc1ccccc1)OC(=O)[C@@H]1CCCCN1S(=O)(=O)c1ccccc1	72.5%	7%	10%	41.5%	6.7%	122 nM	64.6%	
O=C(NCc1ccc[n+]([O-])c1)[C@H](Cc1ccc(F)cc1)NC(=O)[C@@H]1CCCCN1S(=O)(=O)Cc1ccc(F)cc1	51.7%	40.9%	49.4%	52.8%	24%	1310 nM	44.2%	
CC(C)C[C@@H](OC(=O)[C@@H]1CCCCN1S(=O)(=O)Cc1ccccc1)C(=O)NCc1cccnc1		inactive	inactive		inactive	2520 nM		
O=C(NCc1cccnc1)[C@H](Cc1ccccc1)OC(=O)[C@H]1CCCCN1S(=O)(=O)c1ccccc1	82.7%	147%	27.2%	35.2%	122%	42400 nM	68.4%	
CC[C@H](C)[C@H](OC(=O)C1CCCCN1S(=O)(=O)Cc1ccccc1)C(=O)NCc1cccnc1 (mixture of isomers)	94.3%	16.8%	73.3%	58%	9.4%	3130 nM	35.4%	
O=C(N[C@@H](Cc1ccccc1)C(=O)NCc1ccc[n+]([O-])c1)C1CCCCN1S(=O)(=O)Cc1ccccc1 (mixture of isomers)	46.2%	51.9%	66.7%	76%	45.5%	4450 nM	45.4%	
O=C(O[C@H](Cc1ccccc1)C(=O)NCc1cccnc1)[C@H]1CCCCN1S(=O)(=O)c1ccccc1	74.3%	155%	51.3%	21%	108%		58.6%	Not Active
CC(C)C[C@H](NC(=O)[C@@H]1CCCCN1S(=O)(=O)Cc1ccc(F)cc1)C(=O)NCc1ccc[n+]([O-])c1	61.5%	21%	44.4%	71.3%	23.8%	148 nM	56.4%	
O=C(NCc1cccnc1)[C@@H](CCc1ccccc1)NC(=O)[C@@H]1CCCCN1S(=O)(=O)Cc1ccccc1	88.7%	23.4%	83.7%	69.9%	39.9%	320 nM	41.9%	
O=C(NCc1cccnc1)[C@@H](CCc1ccccc1)COC(=O)[C@@H]1CCCCN1S(=O)(=O)Cc1ccccc1	70.6%	14.8%	54%	16%	11.1%	15.3 nM	19.8%	
O=C(NCc1cccnc1)[C@@H](Cc1ccccc1)OC(=O)[C@@H]1CCCCN1S(=O)(=O)c1ccccc1	65.9%	151%	51.1%	26%	106%	41100 nM	73.2%	
O=C(NCc1cccnc1)C(CCc1cccnc1)OC(=O)[C@@H]1CCCCN1S(=O)(=O)c1ccccc1 (mixture of isomers)	35.6%	32.6%	82%	84.4%	32.8%	4160 nM	52%	
O=C(NCc1cccnc1)[C@@H](NC(=O)[C@@H]1CCCCN1S(=O)(=O)Cc1ccc(F)cc1)c1ccc(F)cc1	46.7%	13.5%	43.3%	51.4%	30.6%	17 nM	31.4%	
O=C(NCc1cccnc1)[C@@H](NC(=O)[C@@H]1CCCCN1S(=O)(=O)Cc1ccccc1)c1ccc(F)cc1	78.5%	11.3%	63.5%	22.6%	27.2%	73.2 nM	28%	
COCCOc1cc(OCCOC)cc(C(=O)NCCOC(=O)[C@@H]2CCCCN2S(=O)(=O)Cc2ccccc2)c1	71%	52.3%	85%	19.6%	88.9%	1060 nM	21.5%	
O=C(NCc1cccnc1)[C@H](Cc1ccccc1)NC(=O)[C@@H]1CCCCN1S(=O)(=O)Cc1ccccc1	63.4%	23.7%	27.3%	25%	8.5%	34.7 nM	40.9%	
O=C(NCc1cccnc1)[C@@H](Cc1ccccc1)NC(=O)[C@@H]1CCCCN1S(=O)(=O)Cc1ccccc1	30.4%	21.5%	87.9%	60.8%	45.4%	626 nM	70.6%	
O=C(NCc1cccnc1)[C@H](CCc1ccccc1)NC(=O)[C@@H]1CCCCN1S(=O)(=O)Cc1ccccc1	75.4%	17.6%	44.8%	34.1%	12.9%	10.5 nM	71.5%	
O=C(O[C@@H](Cc1ccccc1)C(=O)NCc1cccnc1)C1CCCCN1S(=O)(=O)Cc1ccccc1 (mixture of isomers)	68.5%	15.9%	14%	38.4%	6.9%	48.8 nM	65.1%	
CC(C)C[C@H](NC(=O)[C@@H]1CCCCN1S(=O)(=O)Cc1ccc(F)cc1)C(=O)NCc1cccnc1	46.8%	5.8%	23.6%	56.2%	4.2%	45.6 nM	61.7%	
O=C(NCc1cccnc1)C(CCc1ccccc1)COC(=O)[C@@H]1CCCCN1S(=O)(=O)Cc1ccccc1 (mixture of isomers)	93.4%	28.7%	47%	16.4%	8.4%	207 nM	63.5%	
C=CCOC(=O)[C@H](Cc1ccc(F)cc1)NC(=O)[C@@H]1CCCCN1S(=O)(=O)Cc1ccc(F)cc1		inactive	inactive		inactive			Not Active
O=C(NCc1cccnc1)C(CCc1ccccc1)COC(=O)[C@H]1CCCCN1S(=O)(=O)Cc1ccccc1 (mixture of isomers)	95.7%	140%	93.7%	21.2%	119%			Not Active
O=C(NCc1cccnc1)[C@H](Cc1ccc(F)cc1)NC(=O)[C@@H]1CCCCN1S(=O)(=O)Cc1ccc(F)cc1	68%	12.5%	11.5%	47.9%	37.2%	18.8 nM	50.8%	
